According to patent US20060069132A1, “Azolecarboxamide herbicides” (priority 2004, published 2006):

Key:
kochia = experiment: Test C pre-/postemergence herbicide test; assay type: in vivo, Kochia scoparia; conditions: for Kochia plant response rating: 500 g ai/ha
How it was run: (§1)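 Emerged plants at the 1- to 4-leaf stage (2–18 cm), or freshly planted seeds, received test chemicals in a non-phytotoxic solvent mixture with surfactant. Response was visually scored against controls after 12 to 14 days in the greenhouse, on a 0 (no effect) to 100 (complete control) scale.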

eastern black nightshade = experiment: Test C pre-/postemergence herbicide test; assay type: in vivo, Solanum ptycanthum; conditions: for Plant response rating (0 = no effect, 100 = complete control), Nightshade: 62 g ai/ha; for Plant response rating (0 = no effect, 100 = complete control), Nightshade / Plant response rating, Nightshade: preemergence; for Plant response rating, Nightshade: 125 g ai/ha, scale 0 (no effect) to 100 (complete control), visual, 12 to 14 days; for Nightshade plant response rating: Preemergence, 500 g ai/ha, scale 0 to 100, 0 no effect, 100 complete control
How it was run: as §1

soybean = experiment: Test C pre-/postemergence herbicide test; assay type: in vivo, Glycine max; conditions: for Soybean plant response rating: 500 g ai/ha
How it was run: as §1

redroot pigweed = experiment: Test A pre-/postemergence herbicide test; assay type: in vivo, Amaranthus retroflexus
How it was run: (§2)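 Both application timings were run together: directed soil spray over freshly planted seeds in sandy loam, and runoff spray onto 2–10 cm seedlings. Evaluation after ~10 days in greenhouse used a 0–100 visual scale versus untreated controls.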

yellow nutsedge = experiment: Test C pre-/postemergence herbicide test; assay type: in vivo, Cyperus esculentus; conditions: for Nutsedge, Yellow plant response rating: 500 g ai/ha
How it was run: as §1

cocklebur = experiment: Test C pre-/postemergence herbicide test; assay type: in vivo, Xanthium strumarium; conditions: for Cocklebur plant response rating: 500 g ai/ha
How it was run: as §1

morningglory = experiment: Test B pre-/postemergence herbicide test; assay type: in vivo, Ipomoea coccinea; conditions: for Morningglory plant response rating: postemergence, visual rating
How it was run: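 Plants compared with untreated controls 13–15 days post-treatment and given a visual 0–100 injury score. Applications: preemergence to seeds; postemergence at 1- to 4-leaf (2–18 cm); paddy species flooded, 2-leaf stage. Vehicle non-phytotoxic, surfactant included.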

barnyardgrass = experiment: Test A pre-/postemergence herbicide test; assay type: in vivo, Echinochloa crus-galli
How it was run: as §2

lambsquarters = experiment: Test B pre-/postemergence herbicide test; assay type: in vivo, Chenopodium album; conditions: for Lambsquarters plant response rating: postemergence, visual rating
How it was run: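 Formulation: non-phytotoxic solvent mix with surfactant. Timing: preemergence on seed and postemergence on 2–18 cm plants, applied concurrently. Readout after 13–15 d greenhouse: visual 0–100 control rating against controls.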

[1] = 125 g ai/ha, scale 0 (no effect) to 100 (complete control), visual, 12 to 14 days, preemergence
[2] = Preemergence, scale 0 to 100, 0 no effect, 100 complete control
[3] = Postemergence, 500 g ai/ha, 0 to 100 scale, 0 no effect, 100 complete control
[4] = Postemergence, 2000 g ai/ha, 0 to 100 scale, 0 no effect, 100 complete control
[5] = Preemergence, 500 g ai/ha, visual rating, 0 to 100 scale (0 no effect, 100 complete control)
[6] = Preemergence, 2000 g ai/ha, visual rating, 0 to 100 scale (0 no effect, 100 complete control)
[7] = 250 g ai/ha, scale 0 to 100 (0 no effect, 100 complete control), visual, 12 to 14 days, preemergence
[8] = 500 g ai/ha, visual rating 0-100, 0 no effect, 100 complete control, preemergence
[9] = Postemergence, 500 g ai/ha, visual rating after 13 to 15 days, scale 0 (no effect) to 100 (complete control)
[10] = 125 g ai/ha, scale 0 (no effect) to 100 (complete control)
[11] = preemergence, 125 g ai/ha, 0 to 100 scale, 0 is no effect, 100 is complete control
[12] = Postemergence, 250 g ai/ha, scale 0 to 100, 0 no effect, 100 complete control
[13] = postemergence, 125 g ai/ha, scale 0 to 100
[14] = postemergence, 62 g ai/ha, scale 0 to 100
[15] = Postemergence, 250 g ai/ha, 0 to 100 scale, 0 no effect, 100 complete control
[16] = Postemergence, 1000 g ai/ha, 0 to 100 scale, 0 no effect, 100 complete control
[17] = Preemergence, 1000 g ai/ha, visual rating, 0 to 100 scale (0 no effect, 100 complete control)
[18] = preemergence, 250 g ai/ha, visual injury, 0 to 100 scale (0 no effect, 100 complete control)
[19] = 500 g ai/ha, scale 0 (no effect) to 100 (complete control)

CC(=NO)c1cccc(NC(=O)c2cc(C(C)(C)C)nn2C)c1 [Compound 102]
Plant response rating (0 = no effect, 100 = complete control), Kochia (kochia; 62 g ai/ha, preemergence): 0
Plant response rating, Kochia (kochia; [1]): 30
Kochia plant response rating (kochia; [2]): 60
Plant response rating (0 = no effect, 100 = complete control), Nightshade (eastern black nightshade): 90
Plant response rating, Nightshade (eastern black nightshade): 100
Nightshade plant response rating (eastern black nightshade): 100
Plant response rating (0 = no effect, 100 = complete control), Soybean (soybean; 62 g ai/ha, preemergence): 0
Plant response rating, Soybean (soybean; [1]): 0
Soybean plant response rating (soybean; [2]): 20
Pigweed plant response rating (redroot pigweed; [3]): 95
Plant response rating, Pigweed (redroot pigweed; [4]): 100
Pigweed plant response rating (redroot pigweed; [5]): 80
Pigweed plant response rating (redroot pigweed; [6]): 90
Plant response rating (0 = no effect, 100 = complete control), Nutsedge, Yellow (yellow nutsedge; 62 g ai/ha, preemergence): 0
Plant response rating, Nutsedge, Yellow (yellow nutsedge; [1]): 0
Nutsedge, Yellow plant response rating (yellow nutsedge; [2]): 30
Plant response rating (0 = no effect, 100 = complete control), Cocklebur (cocklebur; 62 g ai/ha, preemergence): 10
Plant response rating, Cocklebur (cocklebur; [1]): 20
Plant response rating, Cocklebur (cocklebur; [7]): 20
Cocklebur plant response rating (cocklebur; [2]): 70
Plant response rating, Morningglory (morningglory; [8]): 100
Plant response rating, Morningglory (morningglory; [9]): 30
Morningglory plant response rating (morningglory; [10]): 10
Plant response rating, Morningglory (morningglory; [11]): 50
Barnyardgrass plant response rating (barnyardgrass; [3]): 55
Plant response rating, Barnyardgrass (barnyardgrass; [4]): 75
Barnyardgrass plant response rating (barnyardgrass; [5]): 70
Barnyardgrass plant response rating (barnyardgrass; [6]): 85
Plant response rating, Lambsquarters (lambsquarters; [8]): 100
Plant response rating, Lambsquarters (lambsquarters; [9]): 20
Lambsquarters plant response rating (lambsquarters; [10]): 10
Plant response rating, Lambsquarters (lambsquarters; [11]): 100

CCn1nc(C(C)(C)C)cc1C(=O)Nc1cccc(C(C)=NO)c1 [Compound 108]
Plant response rating (0 = no effect, 100 = complete control), Kochia (kochia; 62 g ai/ha, preemergence): 100
Plant response rating, Kochia (kochia; [1]): 100
Kochia plant response rating (kochia; Postemergence, scale 0 to 100): 90
Plant response rating, Kochia (kochia; [12]): 90
Kochia plant response rating (kochia; [2]): 100
Plant response rating, Kochia (kochia; [13]): 80
Plant response rating, Kochia (kochia; [14]): 60
Plant response rating (0 = no effect, 100 = complete control), Nightshade (eastern black nightshade): 100
Plant response rating, Nightshade (eastern black nightshade): 100
Nightshade plant response rating (eastern black nightshade): 100
Plant response rating, Soybean (soybean; [1]): 0
Soybean plant response rating (soybean; Postemergence, scale 0 to 100): 60
Plant response rating, Soybean (soybean; [12]): 60
Soybean plant response rating (soybean; [2]): 10
Plant response rating, Soybean (soybean; [13]): 60
Plant response rating, Soybean (soybean; [14]): 50
Pigweed plant response rating (redroot pigweed; [3]): 100
Plant response rating, Pigweed (redroot pigweed; [4]): 100
Pigweed plant response rating (redroot pigweed; [5]): 100
Pigweed plant response rating (redroot pigweed; [6]): 100
Plant response rating (0 = no effect, 100 = complete control), Nutsedge, Yellow (yellow nutsedge; 62 g ai/ha, preemergence): 50
Plant response rating, Nutsedge, Yellow (yellow nutsedge; [1]): 70
Nutsedge, Yellow plant response rating (yellow nutsedge; Postemergence, scale 0 to 100): 30
Plant response rating, Nutsedge, Yellow (yellow nutsedge; [12]): 30
Nutsedge, Yellow plant response rating (yellow nutsedge; [2]): 80
Plant response rating, Nutsedge, Yellow (yellow nutsedge; [13]): 30
Plant response rating, Nutsedge, Yellow (yellow nutsedge; [14]): 20
Plant response rating (0 = no effect, 100 = complete control), Cocklebur (cocklebur; 62 g ai/ha, preemergence): 20
Plant response rating, Cocklebur (cocklebur; [1]): 30
Plant response rating, Cocklebur (cocklebur; [7]): 30
Cocklebur plant response rating (cocklebur; Postemergence, scale 0 to 100): 100
Plant response rating, Cocklebur (cocklebur; [12]): 100
Cocklebur plant response rating (cocklebur; [2]): 50
Plant response rating, Cocklebur (cocklebur; [13]): 80
Plant response rating, Cocklebur (cocklebur; [14]): 70
Plant response rating, Morningglory (morningglory; [8]): 70
Plant response rating, Morningglory (morningglory; [9]): 100
Morningglory plant response rating (morningglory; [10]): 30
Plant response rating, Morningglory (morningglory; [11]): 50
Barnyardgrass plant response rating (barnyardgrass; [3]): 85
Plant response rating, Barnyardgrass (barnyardgrass; [4]): 100
Barnyardgrass plant response rating (barnyardgrass; [5]): 85
Barnyardgrass plant response rating (barnyardgrass; [6]): 90
Plant response rating, Lambsquarters (lambsquarters; [8]): 100
Plant response rating, Lambsquarters (lambsquarters; [9]): 100
Lambsquarters plant response rating (lambsquarters; [10]): 90
Plant response rating, Lambsquarters (lambsquarters; [11]): 100

CCn1nc(C(C)(C)C)cc1C(=O)Nc1cccc(S(=O)(=O)C(F)(F)F)c1 [Compound 134]
Plant response rating (0 = no effect, 100 = complete control), Kochia (kochia; 62 g ai/ha, preemergence): 85
Plant response rating, Kochia (kochia; [1]): 100
Kochia plant response rating (kochia; [2]): 100
Plant response rating (0 = no effect, 100 = complete control), Nightshade (eastern black nightshade): 90
Plant response rating, Nightshade (eastern black nightshade): 95
Nightshade plant response rating (eastern black nightshade): 100
Plant response rating (0 = no effect, 100 = complete control), Soybean (soybean; 62 g ai/ha, preemergence): 0
Plant response rating, Soybean (soybean; [1]): 0
Soybean plant response rating (soybean; [2]): 35
Pigweed plant response rating (redroot pigweed; [15]): 85
Plant response rating, Pigweed (redroot pigweed; [16]): 100
Pigweed plant response rating (redroot pigweed; [17]): 100
Pigweed plant response rating (redroot pigweed; [18]): 35
Plant response rating (0 = no effect, 100 = complete control), Nutsedge, Yellow (yellow nutsedge; 62 g ai/ha, preemergence): 0
Plant response rating, Nutsedge, Yellow (yellow nutsedge; [1]): 0
Nutsedge, Yellow plant response rating (yellow nutsedge; [2]): 0
Plant response rating (0 = no effect, 100 = complete control), Cocklebur (cocklebur; 62 g ai/ha, preemergence): 0
Plant response rating, Cocklebur (cocklebur; [1]): 0
Plant response rating, Cocklebur (cocklebur; [7]): 0
Cocklebur plant response rating (cocklebur; [2]): 0
Plant response rating, Morningglory (morningglory; [8]): 20
Morningglory plant response rating (morningglory; [10]): 20
Morningglory plant response rating (morningglory; [19]): 40
Plant response rating, Morningglory (morningglory; [11]): 10
Barnyardgrass plant response rating (barnyardgrass; [15]): 30
Plant response rating, Barnyardgrass (barnyardgrass; [16]): 70
Barnyardgrass plant response rating (barnyardgrass; [17]): 45
Barnyardgrass plant response rating (barnyardgrass; [18]): 25
Plant response rating, Lambsquarters (lambsquarters; [8]): 100
Lambsquarters plant response rating (lambsquarters; [10]): 80
Lambsquarters plant response rating (lambsquarters; [19]): 90
Plant response rating, Lambsquarters (lambsquarters; [11]): 100

CCn1nc(C(C)(C)C)cc1C(=O)Nc1cccc(C#N)c1 [Compound 139]
Plant response rating (0 = no effect, 100 = complete control), Kochia (kochia; 62 g ai/ha, preemergence): 100
Plant response rating, Kochia (kochia; [1]): 100
Plant response rating, Kochia (kochia; [12]): 50
Plant response rating, Kochia (kochia; [13]): 50
Plant response rating, Kochia (kochia; [14]): 50
Plant response rating (0 = no effect, 100 = complete control), Nightshade (eastern black nightshade): 95
Plant response rating, Nightshade (eastern black nightshade): 100
Plant response rating, Soybean (soybean; [1]): 10
Plant response rating, Soybean (soybean; [12]): 35
Plant response rating, Soybean (soybean; [13]): 30
Plant response rating, Soybean (soybean; [14]): 20
Pigweed plant response rating (redroot pigweed; [3]): 75
Plant response rating, Pigweed (redroot pigweed; [4]): 100
Pigweed plant response rating (redroot pigweed; [6]): 100
Pigweed plant response rating (redroot pigweed; preemergence, 500 g ai/ha, visual injury, 0 to 100 scale (0 no effect, 100 complete control)): 100
Plant response rating, Nutsedge, Yellow (yellow nutsedge; 31 g ai/ha, scale 0 to 100, last section of Table C, preemergence): 0
Plant response rating (0 = no effect, 100 = complete control), Nutsedge, Yellow (yellow nutsedge; 62 g ai/ha, preemergence): 0
Plant response rating, Nutsedge, Yellow (yellow nutsedge; [1]): 0
Plant response rating, Nutsedge, Yellow (yellow nutsedge; [12]): 0
Plant response rating, Nutsedge, Yellow (yellow nutsedge; [13]): 0
Plant response rating, Nutsedge, Yellow (yellow nutsedge; [14]): 0
Plant response rating (0 = no effect, 100 = complete control), Cocklebur (cocklebur; 62 g ai/ha, preemergence): 0
Plant response rating, Cocklebur (cocklebur; [1]): 0
Plant response rating, Cocklebur (cocklebur; [7]): 0
Plant response rating, Cocklebur (cocklebur; [12]): 10
Plant response rating, Cocklebur (cocklebur; [13]): 10
Plant response rating, Cocklebur (cocklebur; postemergence, 31 g ai/ha, scale 0 to 100): 5
Plant response rating, Cocklebur (cocklebur; [14]): 5
Plant response rating, Morningglory (morningglory; [8]): 30
Morningglory plant response rating (morningglory; [10]): 10
Morningglory plant response rating (morningglory; [19]): 100
Plant response rating, Morningglory (morningglory; [11]): 10
Barnyardgrass plant response rating (barnyardgrass; [3]): 35
Plant response rating, Barnyardgrass (barnyardgrass; [4]): 60
Barnyardgrass plant response rating (barnyardgrass; [5]): 40
Barnyardgrass plant response rating (barnyardgrass; [6]): 60
Plant response rating, Lambsquarters (lambsquarters; [8]): 100
Lambsquarters plant response rating (lambsquarters; [10]): 80
Lambsquarters plant response rating (lambsquarters; [19]): 90
Plant response rating, Lambsquarters (lambsquarters; [11]): 100
